Holding throughout (test): Kinase panel profiling at 1 µmol/L (MSA or IMAP), percentage inhibition
Assay type in all cases: biochemical

Experiment [1] deals with panel of 255 wild-type kinases (Homo sapiens, UniProt O00311). Particulars: CDC7/ASK kinase assay; 1 µmol/L single concentration; read-out: %-inhibition CDC7/ASK.
Experiment [2] has as its target panel of 255 wild-type kinases (Homo sapiens, UniProt O75116). The conditions noted are these: kinase ROCK2; 1 µmol/L single concentration; read-out: %-inhibition at 1 µmol/L, ROCK2.
The target of experiment [3] is panel of 255 wild-type kinases (Homo sapiens, UniProt O75676). The conditions noted are these: MSK2; 1 µmol/L single concentration; read-out: %-inhibition, MSK2.
The target in experiment [4] is panel of 255 wild-type kinases (Homo sapiens, UniProt Q06187). The conditions noted are these: BTK kinase assay; 1 µmol/L single concentration; read-out: %-inhibition BTK.
Experiment [5] has as its target T1, panel of 255 wild-type kinases (Homo sapiens, UniProt Q12851).
T1 sequence (Q12851 1-820): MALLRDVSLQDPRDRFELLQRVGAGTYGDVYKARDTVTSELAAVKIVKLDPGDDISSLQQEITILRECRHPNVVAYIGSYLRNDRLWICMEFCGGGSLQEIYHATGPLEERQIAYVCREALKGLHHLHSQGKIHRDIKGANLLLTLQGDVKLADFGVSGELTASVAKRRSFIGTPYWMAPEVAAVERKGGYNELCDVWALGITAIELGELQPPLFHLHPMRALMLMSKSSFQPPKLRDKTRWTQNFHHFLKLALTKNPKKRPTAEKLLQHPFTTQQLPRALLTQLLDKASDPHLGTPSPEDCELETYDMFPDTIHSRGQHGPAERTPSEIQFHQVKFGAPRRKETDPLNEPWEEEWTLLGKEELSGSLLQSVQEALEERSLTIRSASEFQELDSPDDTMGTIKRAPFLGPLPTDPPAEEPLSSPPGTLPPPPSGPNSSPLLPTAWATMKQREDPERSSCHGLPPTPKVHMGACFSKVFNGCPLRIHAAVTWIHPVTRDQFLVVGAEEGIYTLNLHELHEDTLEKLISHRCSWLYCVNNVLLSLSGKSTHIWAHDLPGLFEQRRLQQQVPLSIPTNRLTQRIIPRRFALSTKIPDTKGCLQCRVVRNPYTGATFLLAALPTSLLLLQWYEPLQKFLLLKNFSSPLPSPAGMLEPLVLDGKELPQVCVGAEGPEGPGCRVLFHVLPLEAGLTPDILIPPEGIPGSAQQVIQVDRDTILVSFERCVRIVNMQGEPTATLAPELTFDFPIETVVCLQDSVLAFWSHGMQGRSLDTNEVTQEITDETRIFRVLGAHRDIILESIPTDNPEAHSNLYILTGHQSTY
The conditions noted are these: kinase MAP4K2; 1 µmol/L single concentration; read-out: %-inhibition at 1 µmol/L, MAP4K2.

For experiment [6], the target named is T2, panel of 255 wild-type kinases (Homo sapiens, UniProt Q8TD19).
T2 sequence (Q8TD19 1-979): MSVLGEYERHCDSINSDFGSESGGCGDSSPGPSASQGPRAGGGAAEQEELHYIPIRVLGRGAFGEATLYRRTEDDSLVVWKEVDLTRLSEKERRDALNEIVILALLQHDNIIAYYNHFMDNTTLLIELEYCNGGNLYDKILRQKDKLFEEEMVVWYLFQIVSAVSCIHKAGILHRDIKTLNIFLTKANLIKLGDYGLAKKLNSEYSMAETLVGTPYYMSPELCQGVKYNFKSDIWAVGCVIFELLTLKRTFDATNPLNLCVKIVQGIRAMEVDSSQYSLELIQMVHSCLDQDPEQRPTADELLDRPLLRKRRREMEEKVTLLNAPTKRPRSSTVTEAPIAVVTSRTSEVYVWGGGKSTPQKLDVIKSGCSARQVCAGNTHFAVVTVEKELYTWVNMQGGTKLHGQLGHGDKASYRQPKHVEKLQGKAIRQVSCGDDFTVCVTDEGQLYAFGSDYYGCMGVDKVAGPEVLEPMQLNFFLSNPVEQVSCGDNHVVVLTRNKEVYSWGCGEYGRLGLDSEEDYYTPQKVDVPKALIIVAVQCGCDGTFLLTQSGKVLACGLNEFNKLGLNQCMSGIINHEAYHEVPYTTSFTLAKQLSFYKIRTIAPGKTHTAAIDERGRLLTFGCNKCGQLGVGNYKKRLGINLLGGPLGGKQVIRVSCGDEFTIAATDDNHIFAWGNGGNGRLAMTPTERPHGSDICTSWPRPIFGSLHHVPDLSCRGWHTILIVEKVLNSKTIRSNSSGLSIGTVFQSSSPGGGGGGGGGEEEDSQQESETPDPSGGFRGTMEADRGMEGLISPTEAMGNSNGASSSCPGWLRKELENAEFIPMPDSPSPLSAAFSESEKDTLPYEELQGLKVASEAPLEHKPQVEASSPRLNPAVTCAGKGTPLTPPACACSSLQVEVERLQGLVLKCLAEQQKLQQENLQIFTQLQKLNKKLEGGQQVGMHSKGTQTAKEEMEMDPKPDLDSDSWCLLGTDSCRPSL
Particulars: NEK9; 1 µmol/L single concentration; read-out: %-inhibition, NEK9.

Experiment [7] has as its target T3, panel of 255 wild-type kinases (Homo sapiens, UniProt Q9H093).
T3 sequence (Q9H093 1-628): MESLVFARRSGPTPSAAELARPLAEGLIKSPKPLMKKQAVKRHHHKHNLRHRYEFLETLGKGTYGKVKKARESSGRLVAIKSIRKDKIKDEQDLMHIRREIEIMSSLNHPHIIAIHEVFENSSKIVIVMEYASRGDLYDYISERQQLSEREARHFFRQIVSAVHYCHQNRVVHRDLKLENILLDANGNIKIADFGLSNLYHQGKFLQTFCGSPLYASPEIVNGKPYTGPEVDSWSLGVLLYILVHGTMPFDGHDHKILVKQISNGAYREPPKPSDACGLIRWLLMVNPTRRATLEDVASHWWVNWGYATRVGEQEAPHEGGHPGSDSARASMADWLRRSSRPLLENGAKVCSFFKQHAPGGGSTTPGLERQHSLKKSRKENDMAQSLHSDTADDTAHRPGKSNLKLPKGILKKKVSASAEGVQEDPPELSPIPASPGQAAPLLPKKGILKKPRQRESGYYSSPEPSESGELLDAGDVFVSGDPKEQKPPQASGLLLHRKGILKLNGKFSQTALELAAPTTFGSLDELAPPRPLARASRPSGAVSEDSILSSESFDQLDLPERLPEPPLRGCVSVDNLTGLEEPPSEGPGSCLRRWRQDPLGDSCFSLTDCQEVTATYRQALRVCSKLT
Particulars: NuaK2; 1 µmol/L single concentration; read-out: %-inhibition, NuaK2.

For the molecule `CCN1C(=O)N(c2c(F)c(OC)cc(OC)c2F)Cc2cnc3[nH]c(CN4CCOCC4)cc3c21` [pemigatinib], the inhibition at 1 µM in experiment [1] is -3.54%; in experiment [2], -5%; in experiment [3], -3.61%; in experiment [4] it was -5.29%; in experiment [5] it was 8%; in experiment [6], -1.57%. In addition, in experiment [7], the inhibition at 1 µM turned out to be 1.46%.
As for `FC(F)(F)c1ccc(CNc2ccc(Cc3c[nH]c4ncc(Cl)cc34)cn2)cn1` [pexidartinib], the inhibition at 1 µM in experiment [1] is 0.521%; in experiment [2], 0.233%; in experiment [3] it was 4.45%; in experiment [4], -0.863%; in experiment [5], 31%; in experiment [6], 1.33%. For the same molecule, the inhibition at 1 µM in experiment [7] was determined as 5%.
As to `CO[C@]1(C(=O)N[C@@H](C)c2ccc(-n3cc(F)cn3)nc2)CC[C@H](c2nc(C)cc(Nc3cc(C)[nH]n3)n2)CC1` [pralsetinib], the inhibition at 1 µM in experiment [1] is -1.05%; in experiment [2] it was 1.29%; in experiment [3], 3.18%; in experiment [4], 53%; in experiment [5], 3.5%; in experiment [6], 16%. The inhibition at 1 µM in experiment [7] was 75%.
In the case of `CCn1c(=O)c(-c2cc(NC(=O)Nc3ccccc3)c(F)cc2Br)cc2cnc(NC)cc21` [ripretinib], the inhibition at 1 µM in experiment [1] is 0.278%; in experiment [2], -1.2%; in experiment [3], 3%; in experiment [4], 4.22%; in experiment [5], 44%; in experiment [6] it was -2.78%. Moreover, the inhibition at 1 µM in experiment [7] came out at 1.36%.
For `COc1ccc(CN2C3CC2CN(c2ccc(-c4cc(OCC(C)(C)O)cn5ncc(C#N)c45)cn2)C3)cn1` [selpercatinib], the inhibition at 1 µM in experiment [1] was -2%; in experiment [2], -0.275%; in experiment [3], 5.66%; in experiment [4], 17%; in experiment [5] it was 4.23%; in experiment [6] it was -0.802%. Further, in experiment [7], the inhibition at 1 µM worked out at 4%.
Take `Cn1cnc2c(F)c(Nc3ccc(Br)cc3Cl)c(C(=O)NOCCO)cc21` [selumetinib]: the inhibition at 1 µM is -0.0396% in experiment [1]; 2.83% in experiment [2]; -0.42% in experiment [3]; 52% in experiment [4]; 2.67% in experiment [5]; 0.727% in experiment [6]. Moreover, in experiment [7], the inhibition at 1 µM was 6%.
As for `Cc1cc(Nc2ncnc3ccc(NC4=NC(C)(C)CO4)cc23)ccc1Oc1ccn2ncnc2c1` [tucatinib], the inhibition at 1 µM in experiment [1] was -0.857%; in experiment [2], -1.34%; in experiment [3] it was 1.24%; in experiment [4], 21%; in experiment [5] it was 6%; in experiment [6], -2%. In experiment [7], the inhibition at 1 µM is 6.61%.

(Values after publication PMC9516332 (Frontiers in Oncology, 2022).)
